Measured values as given in patent publication EP0562731A1, “Substituted pyridinesulfonamide compounds or their salts, process for preparing the same, and herbicides containing the same” (ISHIHARA SANGYO KAISHA, Ltd., priority 1992, dated 1993).

How the values were obtained:
Experiment in all cases: Test Example 1: foliar application pot test, visual growth control rating
Format in all cases: in vivo
Set-up in all cases: key: 1: the same as in an untreated plot; 10: perfect growth control
Conditions in all cases: 1.25 g/a active ingredient, wettable powder, observed 20 to 31 days after application
rice (Oryza sativa) = tested on: rice (Oryza sativa)
Text: (§1) 1/1,500 are [are (a) = 100 m²] pots were filled with upland farming soil, which in the pots was then sown with a variety of plants. The plants grown will be enumerated below.
(§2) When each plant reached a given growth stage (a 1.2- to 3.0-leaf stage for rice, primary leaf to a 0.7-leaf stage for soybean, 2.1- to 3.6-leaf stage for corn, cotyledon to 0.7-leaf stage for cotton, 2.0- to 3.0-leaf stage for wheat, 0.3- to 3.4-leaf stage for cocklebur, 0.3- to 1.6-leaf stage for morning glory, 0.1- to 1.3-leaf stage for prickly sida, 0.1- to 1.3-leaf stage for slender amaranth, 1.5- to 3.2-leaf stage for barnyard glass, and 1.2- to 3.0-leaf stage for large crabgrass), a predetermined amount of the herbicide of the present invention in the form of a wettable powder, weighed out, diluted with 5 ℓ/a of water and admixed with 0.2 or 0.1 vol%, based on the resulting composition, of an agricultural spreader, was foliarly applied to the plant with a small spray gun. The progress of growth of the plant was visually observed 20 to 31 days after the foliar application to evaluate the degree of growth control according to 10 ratings (1: the same as in an untreated plot - 10: perfect growth control).

[1] = tested on: large crabgrass (Digitaria adscendens)
Text: as §1, §2

[2] = tested on: morning glory (Ipomoea purpurea)
Text: as §1, §2

[3] = tested on: cocklebur (Xanthium strumarium)
Text: as §1, §2

corn (Zea mays) = tested on: corn (Zea mays)
Text: as §1, §2

soybean (Glycine max) = tested on: soybean (Glycine max)
Text: as §1, §2

[4] = tested on: slender amaranth (Amaranthus viridis)
Text: as §1, §2

[5] = tested on: barnyard grass (Echinochloa crus-galli)
Text: as §1, §2

[6] = tested on: prickly sida (Sida spinosa)
Text: as §1, §2

wheat (Triticum) = tested on: wheat (Triticum)
Text: as §1, §2

SMILES	degree of growth control, OR (rice (Oryza sativa))	degree of growth control, DI [1]	degree of growth control, IP [2]	degree of growth control, XA [3]	degree of growth control, ZE (corn (Zea mays))	degree of growth control, GL (soybean (Glycine max))	degree of growth control, AM [4]	degree of growth control, EC [5]	degree of growth control, SI [6]	degree of growth control, TR (wheat (Triticum))
CCCCN(c1cccc(S(=O)(=O)NC(=O)Nc2nc(C)nc(OC)n2)n1)S(=O)(=O)C(C)C [Compound No. 4]	8	3	6	9	10	4	9	7	6	2
CCS(=O)(=O)N(c1cccc(S(=O)(=O)NC(=O)Nc2nc(C)nc(OC)n2)n1)C(C)C [compound 6]	6	4	8	7	10	3	9	6	6	3
CCS(=O)(=O)N(c1cccc(S(=O)(=O)NC(=O)Nc2nc(OC)nc(OC)n2)n1)C(C)C [compound 7]	3	2	6	7	10	3	9	2	3	2
CCCN(c1cccc(S(=O)(=O)NC(=O)Nc2nc(OC)nc(OC)n2)n1)S(=O)(=O)CC [compound 8]	3	5	4	6	5	4	7	5	3	3
CCCCN(c1cccc(S(=O)(=O)NC(=O)Nc2nc(C)nc(OC)n2)n1)S(C)(=O)=O [compound 32]	3	6	5	6	3	3	6	3	4	2
COc1nc(C)nc(NC(=O)NS(=O)(=O)c2cccc(N(CC(C)C)S(C)(=O)=O)n2)n1 [compound 33]	6	6	4	3	2	3	6	3	3	3
CCN(c1cccc(S(=O)(=O)NC(=O)Nc2nc(C)nc(OC)n2)n1)S(=O)(=O)CC [compound 37]	2	2	3	4	3	2	9	4	3	1
CCCS(=O)(=O)N(C)c1cccc(S(=O)(=O)NC(=O)Nc2nc(C)nc(OC)n2)n1 [compound 39]	3	4	5	5	3	4	9	3	3	3
